Measurements: US4511573A, “3-Substituted-2-(heteroaryl) indoles” (Ciba-Geigy Corporation, priority 1983, dated 1985)

How the values were obtained:
bleeding time = assay: prolongation of bleeding time in the rat; type: in vivo; conditions: oral, about 10 mg/kg
Description: Experimentally, prolongation of bleeding time in the rat is indicative of a beneficial antithrombotic effect.

thromboxane synthetase = molecular target: T1, thromboxane synthetase (Homo sapiens, UniProt P24557); assay: in vitro inhibition of thromboxane synthetase (14C-arachidonic acid, TxB2/PGF2α+β ratio); type: biochemical; conditions: 30 minutes incubation
T1 construct: crude microsomal preparation of thromboxane synthetase from lysed human platelets; from tissue; host or cells: human platelets (lysed, crude microsomal preparation)
T1 sequence (P24557 1-533): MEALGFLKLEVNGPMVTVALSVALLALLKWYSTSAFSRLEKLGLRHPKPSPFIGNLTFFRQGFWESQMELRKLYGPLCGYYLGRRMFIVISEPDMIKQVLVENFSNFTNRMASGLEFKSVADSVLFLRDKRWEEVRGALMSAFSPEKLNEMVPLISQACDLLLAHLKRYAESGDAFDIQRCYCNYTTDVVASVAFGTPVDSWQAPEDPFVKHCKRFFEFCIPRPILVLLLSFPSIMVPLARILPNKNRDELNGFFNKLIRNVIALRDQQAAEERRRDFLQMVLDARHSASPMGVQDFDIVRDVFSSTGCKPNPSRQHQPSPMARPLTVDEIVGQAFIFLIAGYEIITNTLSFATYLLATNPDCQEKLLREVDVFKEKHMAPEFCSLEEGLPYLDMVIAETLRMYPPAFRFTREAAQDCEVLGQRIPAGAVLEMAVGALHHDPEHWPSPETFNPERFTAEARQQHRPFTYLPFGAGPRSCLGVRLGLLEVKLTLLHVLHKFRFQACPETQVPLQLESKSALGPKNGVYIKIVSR
Procedure: Res. Comm. 74, 1432 (1977); the testing procedure is as follows:
^14 C-Arachiodonic acid is incubated with an exzyme consisting of solubilized and partially purified prostaglandin cyclo-oxygenase from sheep seminal vesicles and a crude microsomal preparation of thromboxane synthetase from lysed human platelets. The test compound (dissolved in buffer, or if necessary, in a small amount of ethanol) is added to the incubation medium. At the end of the incubation period (30 minutes), Prostaglandin E2 (PGE2) is reduced to a mixture of Prostaglandin F2 α and F2 β (PGF2α+β) by addition of sodium borohydride. The radioactive products and excess substrate are extracted into ethyl acetate; the extract is evaporated to dryness; the residue is dissolved in acetone, spotted on thin-layer plates and chromatographed in the solvent system toluene: acetone: glacial acetic acid (100 volumes: 100 volumes: 3 volumes). The radioactive zones are located; those corresponding to Thromboxane B2 (TxB2) and PGF2 α+β are transferred to liquid scintillation vials and counted. The ratio of counts for TxB2 /PGF2 α+β is calculated for each concentration of test compound and IC50 values are determined graphically as the concentration of test compound at which the ratio of T×B2 /[…] is reduced to 50% of the control value.

thrombocytopenia = assay: inhibition of variously induced thrombocytopenia; conditions: in vivo
[1] = molecular target: T2, prostacyclin (PGI2) synthetase (Bos taurus, UniProt Q29626); assay: in vitro effect on prostacyclin (PGI2) synthetase (6-keto-PGF1α/PGE2 ratio); type: biochemical, bovine; conditions: pH 7.5, 30 minutes at 37° C., read-out: IC50 for inhibition of prostacyclin synthetase
T2 construct: crude PGI2 synthetase in the form of a microsomal fraction of bovine aorta; from tissue; host or cells: bovine aorta (microsomal fraction)
T2 sequence (Q29626 1-500): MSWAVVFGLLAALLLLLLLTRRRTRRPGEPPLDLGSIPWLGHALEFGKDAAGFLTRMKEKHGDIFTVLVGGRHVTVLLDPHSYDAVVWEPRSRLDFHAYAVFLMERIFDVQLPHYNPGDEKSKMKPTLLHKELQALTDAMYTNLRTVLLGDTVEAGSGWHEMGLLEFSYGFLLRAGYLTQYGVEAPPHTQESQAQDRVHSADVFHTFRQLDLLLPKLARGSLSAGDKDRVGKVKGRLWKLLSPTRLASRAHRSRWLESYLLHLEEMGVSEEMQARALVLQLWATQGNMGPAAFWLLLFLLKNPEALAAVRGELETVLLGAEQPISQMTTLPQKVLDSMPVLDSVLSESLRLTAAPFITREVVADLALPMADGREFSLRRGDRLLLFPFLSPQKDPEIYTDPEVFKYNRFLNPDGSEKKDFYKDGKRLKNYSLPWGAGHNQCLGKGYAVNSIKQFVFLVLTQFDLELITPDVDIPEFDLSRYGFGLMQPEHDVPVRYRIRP
Procedure: The in-vitro effect on prostacyclin (PGI2) synthetase is measured analogous to the method of Sun et al., Prostaglandins 14, 1055 (1977);
The testing procedure is as follows:
^14 C-Arachiodonic acid is incubated with an enzyme mixture consisting of solubilized and partially purified prostaglandin cyclo-oxygenase from sheep seminal vesicles and crude PGI2 synthetase in the form of a microsomal fraction of bovine aorta.
Test compound (dissolved in buffer, or if necessary, in a small amount of ethanol) is placed in the incubation medium. The reaction mixture is incubated in 100 mM Tris HCl (pH 7.5) for 30 minutes at 37° C., acidified to pH 3 and extracted into ethyl acetate. The extract is evaporated to dryness; the residue is dissolved in acetone, spotted on thin-layer plates and chromatographed in a solvent system described by Sun et al.. The radioactive zones are located with a scanner; those corresponding to 6-keto-PGF1 α(a stable end product of prostacyclin biotransformation) and PGE2 are transferred to liquid scintillation vials and counted. The ratio of counts for 6-keto-PGF1 α/PGE2 is calculated for each concentration of test compound used. IC50 values for inhibition are determined graphically as the concentration of test compound at which the ratio of 6-keto-PGF1 α/PGE2 is reduced to 50% of the control value.

[2] = molecular target: T3, prostaglandin cyclooxygenase (Ovis aries, UniProt P05979); assay: in vitro effect on prostaglandin cyclooxygenase (14C-arachidonic acid to PGE2); type: biochemical, sheep; conditions: read-out: IC50 for inhibition of cyclooxygenase
T3 construct: Lyophilized sheep seminal vesicle microsomes are utilized as the prostaglandin-synthesizing enzyme preparation; from tissue; host or cells: sheep seminal vesicle microsomes (lyophilized)
T3 sequence (P05979 25-600): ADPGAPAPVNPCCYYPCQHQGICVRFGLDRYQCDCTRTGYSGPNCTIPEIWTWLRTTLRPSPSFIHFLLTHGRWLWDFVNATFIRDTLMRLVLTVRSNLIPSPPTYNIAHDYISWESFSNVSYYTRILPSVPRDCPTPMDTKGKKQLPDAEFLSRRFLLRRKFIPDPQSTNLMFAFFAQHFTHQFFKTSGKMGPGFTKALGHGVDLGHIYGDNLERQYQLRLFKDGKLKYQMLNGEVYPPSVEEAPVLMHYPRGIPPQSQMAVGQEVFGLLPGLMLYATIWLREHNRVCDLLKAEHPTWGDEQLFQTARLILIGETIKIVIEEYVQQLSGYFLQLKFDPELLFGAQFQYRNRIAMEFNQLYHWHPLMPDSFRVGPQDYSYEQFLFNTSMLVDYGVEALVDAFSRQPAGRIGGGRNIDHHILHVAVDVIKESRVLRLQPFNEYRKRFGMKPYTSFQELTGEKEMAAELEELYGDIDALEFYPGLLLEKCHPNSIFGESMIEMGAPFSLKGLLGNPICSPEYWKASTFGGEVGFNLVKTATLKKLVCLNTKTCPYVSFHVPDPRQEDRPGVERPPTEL
Procedure: The in-vitro effect on prostaglandin cyclooxygenase is measured by a modification of the method of Takeguchi et al. described in Biochemistry 10, 2372 (1971); the testing procedure is as follows: Lyophilized sheep seminal vesicle microsomes are utilized as the prostaglandin-synthesizing enzyme preparation. The conversion of ^14 C-arachidonic acid to PGE2 is measured. Test compounds (dissolved in buffer, or if necessary, in a small amount of ethanol) are added to the incubation mixture. The prostaglandins are extracted and separated by thin-layer chromatography; the plates are scanned, the radioactive zones corresponding to PGE2 are transferred to liquid scintillation vials and counted for radioactivity. IC50 values for inhibition are determined graphically as the concentration of test compound causing a 50% reduction in the amount of PGE2 synthesized.

platelet aggregation = assay: inhibition of variously induced platelet aggregation; type: cell-based
prostacyclin = assay: plasma level of prostacyclin in vivo in rats (ionophore A23187, radioimmunoassay of 6-keto-PGF1α); conditions: rat, oral dose 0.10 mg/kg
Procedure: (§1) The inhibition of the synthesis and the reduction of plasma levels of thromboxane is determined in vivo on administration to rats in the following manner (as adapted from the procedures described by Tai et al. in Anal. Biochem. 87:343, 1978 and by Salmon in Prostaglandins 15:383, 1978):
(§2) Rats are dosed with vehicle or test drug and injected intravenously with ionophore A23187 (0.5 mg/kg) two hours later. Blood is collected for analysis 2 minutes after the inonophore injection. A single aliquot of each plasma sample is assayed for thromboxane B2 and another aliquot for 6-keto-PGF1 α, the stable metabolites of thromboxane A2 and prostacyclin (PGI2) respectively, by radioimmunoassay.

thromboxane B2 = assay: reduction of plasma levels of thromboxane in vivo in rats (ionophore A23187, radioimmunoassay of thromboxane B2); conditions: rat, oral dose 0.10 mg/kg
Procedure: as §1, §2

O=C(O)CCCCCc1c(-c2cccnc2)[nH]c2ccccc12 [3-(5-carboxypentyl)-2-(3-pyridyl)indole]
prolongation of bleeding time (bleeding time): prolongs bleeding time
IC50 (thromboxane synthetase): ~1.7 nM

O=C(O)CCCCCc1c(-c2cccnc2)[nH]c2ccc(Cl)cc12 [3-(5-carboxypentyl)-5-chloro-2-(3-pyridyl)indole]
IC50 (thromboxane synthetase): ~2 nM

Cn1c(-c2cccnc2)c(CCCCCC(=O)O)c2ccccc21 [3-(5-carboxypentyl)-1-methyl-2-(3-pyridyl)indole]
inhibition of variously induced thrombocytopenia (thrombocytopenia): inhibits
IC50 [1]: ~100 µM
IC50 [2]: ~100 µM
inhibition of variously induced platelet aggregation (platelet aggregation): inhibits
IC50 (thromboxane synthetase): 2.2 nM

Cn1c(-c2cccnc2)c(CCCCCC(=O)O)c2cc(Cl)ccc21 [3-(5-carboxypentyl)-5-chloro-1-methyl-2-(3-pyridyl)indole]
increase in the plasma level of prostacyclin (prostacyclin): approximately 8 fold
decrease of plasma concentration of thromboxane B2 (thromboxane B2): over 50%
